Drawing on US20100311714A1, “1H-IMIDAZO[4,5-c]QUINOLINONE COMPOUNDS” (priority 2009, published 2010), this text covers IC50 for 24 compounds.

The structures appear in SMILES notation.

Assay [1] relates to PKB Ser473 phosphorylation in Rat1-myr-HA-p110 beta cells. Description: Reverse protein array, PKB Ser473 phosphorylation in Rat1-myr-HA-p110 beta cells. The class given is cell-based. The settings on record: Rattus norvegicus, 0.5 h, 30 minutes compound incubation, read-out: p-PKB/IC50_beta.
The test system of assay [2] is S6 Ribosomal Protein phosphorylation Ser235/236 in TSC1 null mouse embryo fibroblast (MEF) cells. Description: Reverse protein array, S6 Ribosomal Protein phosphorylation in TSC1 null MEF cells. The settings on record: 1 h, TSC1-/- MEFs, 60 minutes, read-out: p-S6. The assay is classed as cell-based. The protocol:
TSC1−/− MEFs cells (provided by D. Kwiatkowski), were cultivated in Dulbecco's modified Eagle's medium (DMEM high Glucose, GIBCO, cat. No. 41956-039) supplemented with 10% heat inactivated fetal bovine calf serum (Amimed, cat. No. 2-01F16-I), 1% L-Glutamine (Invitrogen, cat. No. 25030-02), 1% penicillin-streptomycin (GIBCO, cat. No. 15140-114) at 37° C. in a 5% CO2 and 95% relative humidity atmosphere incubator.
The TSC1−/− cells were trypsinized and counted with a CASY TT cell counter (Schärfe System GmbH, Reutlingen Germany). The cells were diluted in fresh DMEM complete medium and 0.75×10^4 cells/150 μl/well seeded in 96-well TPP-tissue culture plates (TPP, cat. No. 92096). The plates were incubated at 37° C. and 5% CO2 under humidified condition for at least 20 h. Working solutions were prepared freshly as serial 8 step dilutions (vol/vol) in DMSO on the day of the experiment. The working solutions were further diluted 1/5000 in cell culture medium to get final compound concentrations of […]. The final DMSO concentration was kept constant at 0.02%. cell culture medium containing 0.02% DMSO was used as vehicle treatment control. Post incubation, the cells were treated with the serial compound dilution. 50 μl of the compound medium mixture was added to the wells containing cells and 150 μl DMEM medium and incubated for 60 minutes (37° C., 5% CO2). After 60 minutes of incubation, the medium mixture was quickly removed by aspiration. For cell lysis, a mixture of 10% CLB1 CeLyA lysis buffer (Zeptosens, cat. No. 9000), 90% CSBL1 CeLyA spotting buffer (Zeptosens, cat. No. 9020) was freshly prepared and supplemented with 1% Octyl β-D-glucopyranoside (SIGMA, cat. No. 08001-5G) and 1 mM Na-Orthovanadate (Sigma, cat No. S-6508). 50 μl of the described lysis buffer mix was added to each well, followed by 10 minutes of incubation on ice. After an additional freeze-thaw cycle, another 50 μl of the lysis buffer mix without Octyl β-D-glucopyranoside was added to the wells, and 90 μl of the cell lysate was transferred to a 96-well V-bottom plate (Fisher Scientific, cat. No. 6067Y), followed by a centrifugation step (5 min, 1500 rpm at 19° C. in an Eppendorf 5810R centrifuge) to remove the unlysed cell debris.
The spotting of the chips follows the previous described method.
The signal detection and the data analysis follows the previous described method using the pS6 ribosomal protein Ser235/236 (CST, cat. No. #2211) as a primary antibody.

Take `COc1ncccc1-n1c(=O)n(C)c2cnc3ccc(-c4cnc5[nH]ccc5c4)cc3c21` [Example 1.2, 1-(2-Methoxy-pyridin-3-yl)-3-methyl-8-(1H-pyrrolo[2,3-b]pyridin-5-yl)-1,3-dihydro-imidazo[4,5-c]quinolin-2-one]: the IC50 in assay [1] was less than 0.00457 µM; in assay [2], 0.00261 µM. On the same counts, the results for `COc1ncccc1-n1c(=O)n(C)c2cnc3ccc(-c4ccc(C(N)=O)cc4)cc3c21` [Example 1.6, 4-[1-(2-Methoxy-pyridin-3-yl)-3-methyl-2-oxo-2,3-dihydro-1H-imidazo[4,5-c]quinolin-8-yl]-benzamide] are 0.0169 µM and 0.0219 µM.

Take `Cc1ncccc1-n1c(=O)n(C)c2cnc3ccc(-c4ccc(C(N)=O)cc4)cc3c21` [Example 2.3, 4-[3-Methyl-1-(2-methyl-pyridin-3-yl)-2-oxo-2,3-dihydro-1H-imidazo[4,5-c]quinolin-8-yl]-benzamide]: the values for the IC50 in assay [1] and in assay [2] were 0.0159 µM and 0.0564 µM, respectively.

As to `COc1ccc(-c2ccc3ncc4c(c3c2)n(-c2cccnc2C)c(=O)n4C)cc1OC` [Example 2.9, 8-(3,4-Dimethoxy-phenyl)-3-methyl-1-(2-methyl-pyridin-3-yl)-1,3-dihydro-imidazo[4,5-c]quinolin-2-one], the IC50 in assay [1] worked out at 0.0157 µM.

Turning to `Cc1ncccc1-n1c(=O)n(C)c2cnc3ccc(-c4cncc(N)c4)cc3c21` [Example 2.25, 8-(5-Amino-pyridin-3-yl)-3-methyl-1-(2-methyl-pyridin-3-yl)-1,3-dihydro-imidazo[4,5-c]quinolin-2-one], the IC50 in assay [1] came to 0.0587 µM.

On to `CNc1ncc(-c2ccc3ncc4c(c3c2)n(-c2ncccc2C)c(=O)n4C)cn1` [Example 3.4, 3-Methyl-8-(2-methylamino-pyrimidin-5-yl)-1-(3-methyl-pyridin-2-yl)-1,3-dihydro-imidazo[4,5-c]quinolin-2-one], for which the IC50 in assay [1] amounted to 0.527 µM. The same measure, in the same setting: to `CNC(=O)c1ccc(-c2ccc3ncc4c(c3c2)n(-c2ncccc2C)c(=O)n4C)cc1` [Example 3.5, N-Methyl-4-[3-methyl-1-(3-methyl-pyridin-2-yl)-2-oxo-2,3-dihydro-1H-imidazo[4,5-c]quinolin-8-yl]-benzamide] belongs 0.131 µM; to `CCOc1ccc(-c2ccc3ncc4c(c3c2)n(-c2ncccc2C)c(=O)n4C)cn1` [Example 3.6, 8-(6-Ethoxy-pyridin-3-yl)-3-methyl-1-(3-methyl-pyridin-2-yl)-1,3-dihydro-imidazo[4,5-c]quinolin-2-one], 0.546 µM; to `Cc1cccnc1-n1c(=O)n(C)c2cnc3ccc(-c4ccc(CO)nc4)cc3c21` [Example 3.9, 8-(6-Hydroxymethyl-pyridin-3-yl)-3-methyl-1-(3-methyl-pyridin-2-yl)-1,3-dihydro-imidazo[4,5-c]quinolin-2-one], 0.689 µM. On the same count and under the same terms, to `COc1ccc(-c2ccc3ncc4c(c3c2)n(-c2ncccc2C)c(=O)n4C)cc1OC` [Example 3.10, 8-(3,4-Dimethoxy-phenyl)-3-methyl-1-(3-methyl-pyridin-2-yl)-1,3-dihydro-imidazo[4,5-c]quinolin-2-one] belongs 0.516 µM; to `Cc1ccncc1-n1c(=O)n(C)c2cnc3ccc(-c4ccc(CO)nc4)cc3c21` [Example 4.1, 8-(6-Hydroxymethyl-pyridin-3-yl)-3-methyl-1-(4-methyl-pyridin-3-yl)-1,3-dihydro-imidazo[4,5-c]quinolin-2-one], 0.694 µM; to `Cn1c(=O)n(-c2cccnc2)c2c3cc(-c4ccc(CO)nc4)ccc3ncc21` [Example 5.1, 8-(6-Hydroxymethyl-pyridin-3-yl)-3-methyl-1-pyridin-3-yl-1,3-dihydro-imidazo[4,5-c]quinolin-2-one], 0.166 µM. The same measure, in the same setting: in the case of `CN(C)c1ccc(-c2ccc3ncc4c(c3c2)n(-c2cccnc2)c(=O)n4C)cn1` [Example 5.3, 8-(6-Dimethylamino-pyridin-3-yl)-3-methyl-1-pyridin-3-yl-1,3-dihydro-imidazo[4,5-c]quinolin-2-one] it was 0.185 µM; in that of `CCOc1ccc(-c2ccc3ncc4c(c3c2)n(-c2cccnc2F)c(=O)n4C)cn1` [Example 6.1, 8-(6-Ethoxy-pyridin-3-yl)-1-(2-fluoro-pyridin-3-yl)-3-methyl-1,3-dihydro-imidazo[4,5-c]quinolin-2-one], 0.0562 µM; in that of `Cc1nc(N2CCN(C)C(=O)C2)ccc1-n1c(=O)n(C)c2cnc3ccc(-c4cnc(N)c(C(F)(F)F)c4)cc3c21` [Example 21.1, 8-(6-Amino-5-trifluoromethyl-pyridin-3-yl)-3-methyl-1-[2-methyl-6-(4-methyl-3-oxo-piperazin-1-yl)-pyridin-3-yl]-1,3-dihydro-imidazo[4,5-c]quinolin-2-one], 0.0053 µM. On to `COCc1ncc(-c2ccc3ncc4c(c3c2)n(-c2ccc(N3CCC3)nc2C)c(=O)n4C)cc1OC(C)C` [Example 23.2, 1-(6-Azetidin-1-yl-2-methyl-pyridin-3-yl)-8-(5-isopropoxy-6-methoxymethyl-pyridin-3-yl)-3-methyl-1,3-dihydro-imidazo[4,5-c]quinolin-2-one], for which, in assay [1], the IC50 worked out at 0.0534 µM. Regarding `Cc1nc(N2CCC2)ccc1-n1c(=O)n(C)c2cnc3ccc(-c4cncc(C(C)(C)O)c4)cc3c21` [Example 23.3, 1-(6-Azetidin-1-yl-2-methyl-pyridin-3-yl)-8-[5-(1-hydroxy-1-methyl-ethyl)-pyridin-3-yl]-3-methyl-1,3-dihydro-imidazo[4,5-c]quinolin-2-one], the IC50 in assay [1] amounted to 0.0231 µM. In the case of `CNc1ccc(-c2ccc3ncc4c(c3c2)n(-c2ccc(N3CCC3)nc2C)c(=O)n4C)cn1` [Example 23.4, 1-(6-Azetidin-1-yl-2-methyl-pyridin-3-yl)-3-methyl-8-(6-methylamino-pyridin-3-yl)-1,3-dihydro-imidazo[4,5-c]quinolin-2-one], the IC50 in assay [1] amounted to 0.0068 µM. Regarding `CCOc1cc(-c2ccc3ncc4c(c3c2)n(-c2ccc(N3CCC3)nc2C)c(=O)n4C)cnc1COC` [Example 23.5, 1-(6-Azetidin-1-yl-2-methyl-pyridin-3-yl)-8-(5-ethoxy-6-methoxymethyl-pyridin-3-yl)-3-methyl-1,3-dihydro-imidazo[4,5-c]quinolin-2-one], the IC50 in assay [1] amounted to 0.0986 µM.

Consider `COCc1ncc(-c2ccc3ncc4c(c3c2)n(-c2ccc(N3CCC3)nc2C)c(=O)n4C)cc1OC` [Example 23.6, 1-(6-Azetidin-1-yl-2-methyl-pyridin-3-yl)-8-(5-methoxy-6-methoxymethyl-pyridin-3-yl)-3-methyl-1,3-dihydro-imidazo[4,5-c]quinolin-2-one], for which the IC50 in assay [1] came to 0.103 µM.

For the compound `Cc1nc(N2CCC2)ccc1-n1c(=O)n(C)c2cnc3ccc(-c4cncc(OC(C)C)c4)cc3c21` [Example 23.9, 1-(6-Azetidin-1-yl-2-methyl-pyridin-3-yl)-8-(5-isopropoxy-pyridin-3-yl)-3-methyl-1,3-dihydro-imidazo[4,5-c]quinolin-2-one], the IC50 in assay [1] was 0.136 µM. On to `CCNc1cc(-c2ccc3ncc4c(c3c2)n(-c2ccc(N3CC(O)C3)nc2C)c(=O)n4C)cnc1CO` [Example 29.2, 8-(5-Ethylamino-6-hydroxymethyl-pyridin-3-yl)-1-[6-(3-hydroxy-azetidin-1-yl)-2-methyl-pyridin-3-yl]-3-methyl-1,3-dihydro-imidazo[4,5-c]quinolin-2-one], for which the IC50 in assay [1] turned out to be 0.0327 µM. On the same count and under the same terms, to `CNc1ncc(-c2ccc3ncc4c(c3c2)n(-c2ccc(C(C)(C)O)nc2C)c(=O)n4C)cc1F` [Example 31.1, 8-(5-Fluoro-6-methylamino-pyridin-3-yl)-1-[6-(1-hydroxy-1-methyl-ethyl)-2-methyl-pyridin-3-yl]-3-methyl-1,3-dihydro-imidazo[4,5-c]quinolin-2-one] belongs 0.0193 µM. The same measure, in the same setting: to `CNc1ncc(-c2ccc3ncc4c(c3c2)n(-c2ccc(N3CC[C@H](O)C3)nc2C)c(=O)n4C)cn1` [Example 32.1, 1-[6-((S)-3-Hydroxy-pyrrolidin-1-yl)-2-methyl-pyridin-3-yl]-3-methyl-8-(2-methylamino-pyrimidin-5-yl)-1,3-dihydro-imidazo[4,5-c]quinolin-2-one] belongs less than 0.00457 µM.
